Measured values taken from US20170089921A1, “EXPRESSION OF VOLTAGE-GATED ION CHANNELS IN CILIATES” (priority 2014, published 2017).
No end group written: not given here.

Key:
Nav1.8 = Nav1.8 (Homo sapiens, UniProt Q9Y5Y9); type: biochemical
Kv1.3 [1] = target: T1, Kv1.3 (Homo sapiens, UniProt P22001); assay: Fluorescent toxin labeling of fixed Kv1.3 expressing Tetrahymena cells (confocal microscopy); type: binding; settings: 10 nM, 30 minutes at RT
T1 construct: expressed in transfected cells; host or cells: Tetrahymena thermophila (transformed, CdCl2-induced, paraformaldehyde-fixed)

[2] = tested on: Wild-type (WT) Tetrahymena cells; assay: Fluorescent toxin labeling of fixed wild-type control Tetrahymena cells; type: binding, Tetrahymena thermophila; settings: 10 nM, 30 minutes at RT
Kv1.3 [3] = target: T1, Kv1.3; assay: Competition of ShK-TAMRA labeling of Kv1.3 expressing cells by non-labeled toxins; type: binding; settings: 100 nM (saturating) toxin co-incubated with 10 nM ShK-TAMRA

T1 sequence (P22001 whole entry): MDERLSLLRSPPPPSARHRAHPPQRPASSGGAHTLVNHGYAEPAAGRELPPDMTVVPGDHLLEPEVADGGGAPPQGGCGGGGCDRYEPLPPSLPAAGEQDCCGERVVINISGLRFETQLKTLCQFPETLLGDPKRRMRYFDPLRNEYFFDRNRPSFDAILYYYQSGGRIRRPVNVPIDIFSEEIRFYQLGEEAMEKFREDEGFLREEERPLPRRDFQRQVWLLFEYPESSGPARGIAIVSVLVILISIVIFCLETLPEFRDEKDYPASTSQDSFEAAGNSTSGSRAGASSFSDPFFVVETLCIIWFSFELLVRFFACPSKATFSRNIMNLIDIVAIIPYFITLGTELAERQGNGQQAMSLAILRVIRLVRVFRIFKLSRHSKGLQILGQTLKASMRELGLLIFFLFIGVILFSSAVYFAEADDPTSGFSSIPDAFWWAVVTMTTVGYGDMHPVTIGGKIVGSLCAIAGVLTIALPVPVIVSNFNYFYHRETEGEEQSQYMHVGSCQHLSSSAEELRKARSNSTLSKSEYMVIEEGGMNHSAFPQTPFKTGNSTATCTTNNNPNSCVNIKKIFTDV
Sequence of Nav1.8 (Q9Y5Y9 whole entry): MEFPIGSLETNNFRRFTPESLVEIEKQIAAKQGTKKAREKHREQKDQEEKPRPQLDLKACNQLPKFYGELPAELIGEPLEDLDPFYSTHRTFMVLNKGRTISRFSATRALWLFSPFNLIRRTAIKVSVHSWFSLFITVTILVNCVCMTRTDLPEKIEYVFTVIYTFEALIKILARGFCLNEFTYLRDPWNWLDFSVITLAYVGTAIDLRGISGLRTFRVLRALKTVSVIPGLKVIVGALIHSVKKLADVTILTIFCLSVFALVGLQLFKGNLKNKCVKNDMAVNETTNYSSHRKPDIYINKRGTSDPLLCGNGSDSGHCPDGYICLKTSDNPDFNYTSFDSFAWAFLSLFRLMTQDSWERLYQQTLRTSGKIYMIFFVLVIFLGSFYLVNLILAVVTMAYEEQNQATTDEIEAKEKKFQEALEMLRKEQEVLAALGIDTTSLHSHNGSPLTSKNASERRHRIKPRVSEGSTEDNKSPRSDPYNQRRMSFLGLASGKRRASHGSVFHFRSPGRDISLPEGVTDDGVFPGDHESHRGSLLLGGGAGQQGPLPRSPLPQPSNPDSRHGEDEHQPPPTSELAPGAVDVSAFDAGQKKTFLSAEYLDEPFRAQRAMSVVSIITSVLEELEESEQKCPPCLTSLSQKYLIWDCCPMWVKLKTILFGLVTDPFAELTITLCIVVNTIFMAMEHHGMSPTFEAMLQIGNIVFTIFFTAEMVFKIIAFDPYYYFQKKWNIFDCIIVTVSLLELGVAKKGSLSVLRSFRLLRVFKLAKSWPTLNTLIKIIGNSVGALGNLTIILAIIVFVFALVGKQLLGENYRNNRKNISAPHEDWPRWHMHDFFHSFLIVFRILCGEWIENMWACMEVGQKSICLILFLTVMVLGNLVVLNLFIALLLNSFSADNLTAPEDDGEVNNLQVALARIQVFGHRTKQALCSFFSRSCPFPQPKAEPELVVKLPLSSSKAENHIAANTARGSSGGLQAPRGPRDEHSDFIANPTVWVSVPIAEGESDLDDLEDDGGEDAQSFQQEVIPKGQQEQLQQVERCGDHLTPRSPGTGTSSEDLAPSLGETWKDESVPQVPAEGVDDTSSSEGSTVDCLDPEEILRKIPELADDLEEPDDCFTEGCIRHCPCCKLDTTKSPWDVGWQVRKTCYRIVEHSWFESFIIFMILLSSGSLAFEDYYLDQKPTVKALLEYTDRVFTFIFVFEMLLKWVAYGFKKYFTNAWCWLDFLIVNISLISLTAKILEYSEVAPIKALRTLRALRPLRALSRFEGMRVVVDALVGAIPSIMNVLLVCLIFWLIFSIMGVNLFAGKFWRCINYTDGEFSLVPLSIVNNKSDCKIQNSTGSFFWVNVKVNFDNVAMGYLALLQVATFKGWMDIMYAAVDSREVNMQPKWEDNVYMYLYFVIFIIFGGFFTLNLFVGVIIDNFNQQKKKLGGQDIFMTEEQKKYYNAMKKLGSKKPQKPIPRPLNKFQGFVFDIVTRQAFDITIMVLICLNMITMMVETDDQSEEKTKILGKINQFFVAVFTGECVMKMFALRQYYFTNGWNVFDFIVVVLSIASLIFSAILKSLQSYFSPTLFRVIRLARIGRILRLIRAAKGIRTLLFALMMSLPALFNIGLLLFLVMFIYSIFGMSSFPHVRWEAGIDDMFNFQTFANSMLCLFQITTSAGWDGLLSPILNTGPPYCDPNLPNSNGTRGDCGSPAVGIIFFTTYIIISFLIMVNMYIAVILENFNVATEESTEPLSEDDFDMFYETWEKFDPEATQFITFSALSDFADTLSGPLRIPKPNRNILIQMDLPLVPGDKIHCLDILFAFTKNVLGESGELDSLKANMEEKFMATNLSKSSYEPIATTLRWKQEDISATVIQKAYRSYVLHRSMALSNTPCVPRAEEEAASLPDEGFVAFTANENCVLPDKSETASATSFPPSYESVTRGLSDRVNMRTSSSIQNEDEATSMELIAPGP

Compound | binding to Kv1.3 expressing cells (cell surface labeling) (Kv1.3 [1]) | labeling of WT cells [2] | competition with ShK-TAMRA binding (Kv1.3 [3]) | other results
Cc1c[nH]c(C)c1C(=O)O[C@@H](C)C1=CC[C@@]23OCCN(C)C[C@@]12C[C@@H](O)[C@]12O[C@]4(O)CC[C@@]1(C)[C@H](CC=C32)C4 [BTX, batrachatoxin] |  |  |  | channel activity following addition of activator (Nav1.8; Nav1.8 proteoliposomes, 10× NaCl chemical gradient, 0 mV holding potential, no conductance before addition): channel activity was detected; conductances (Nav1.8; after addition of BTX, 10× NaCl chemical gradient, 0 mV holding potential): 2-3 pA
NC1=N[C@H](O)[C@H]2[C@H]3O[C@]4(O)O[C@@H]([C@@H](O)[C@@]2(N1)[C@@H]4O)[C@]3(O)CO [Tetrodotoxin] |  |  |  | channel activity following addition of blocker (Nav1.8): Activity was abolished
Agitoxin-2-TAMRA [AgTX-2-TAMRA] | bound to Kv1.3 expressing cells | No labeling |  | 
Iberiotoxin (QFTDVDCSVSKECWSVCKDLFGVDRGKCMGKKCRCYQ; ends and bridges not checked; cysteine pairing not given here; UniProt P24663 1-37, looked up) [IbTX] |  |  | does not interfere with ShK-TAMRA binding | 
Margatoxin (TIINVKCTSPKQCLPPCKAQFGQSAGAKCMNGKCKCYPH; ends and bridges not checked; cysteine pairing not given here; UniProt P40755 1-39, looked up) [MgTX] |  |  | competitive | 
ShK-TAMRA | bound to Kv1.3 expressing cells | No labeling |  | 
